The values below come from patent US10039759B2, “Quinolines as FGFR kinase modulators” (priority 2011, dated 2018).

Molecules are shown by their SMILES. Where two headings read alike, the source gives them in different places. A value given as a limit tells only on which side of the number the result lay.

Series [1] has as its target Ba/F3-FGFR4-transfected cells (Homo sapiens, UniProt P22455). Briefly: Ba/F3-FGFR4 cellular proliferation assay, Alamar Blue. Format: cell-based. The conditions noted are these: 24 hours. The method in brief:
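Ba/F3 cells transfected with human FGFR4, 20000 per well in phenol red-free RPMI-1640 with 10% FBS, exposed to compound (10 μM to 0.1 nM) for 24 h at 37 °C. Viability by Alamar Blue (resazurin), 4 h, fluorescence ex 540/em 590 nm; IC50 and pIC50 calculated.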

Another series concerns the target FGFR1 (h) (Homo sapiens, UniProt P11362). In words: FGFR1 (enzymatic assay), TR-FRET. The conditions noted are these: FGFR 1 pIC50, 5 μM ATP, 60 min; pIC50 = -log IC50 (M); average if tested multiple times. Format: biochemical. (Time-resolved FRET reads energy transfer from a long-lived donor to a nearby acceptor.)
In series [2] the target is T1, Ba/F3-FGFR1-transfected cells (Homo sapiens, UniProt P11362, cells depend on it, form not given).
T1 construct: other: minus IL3; 24 hours, Alamar Blue
T1 sequence (P11362 whole entry, change not shown): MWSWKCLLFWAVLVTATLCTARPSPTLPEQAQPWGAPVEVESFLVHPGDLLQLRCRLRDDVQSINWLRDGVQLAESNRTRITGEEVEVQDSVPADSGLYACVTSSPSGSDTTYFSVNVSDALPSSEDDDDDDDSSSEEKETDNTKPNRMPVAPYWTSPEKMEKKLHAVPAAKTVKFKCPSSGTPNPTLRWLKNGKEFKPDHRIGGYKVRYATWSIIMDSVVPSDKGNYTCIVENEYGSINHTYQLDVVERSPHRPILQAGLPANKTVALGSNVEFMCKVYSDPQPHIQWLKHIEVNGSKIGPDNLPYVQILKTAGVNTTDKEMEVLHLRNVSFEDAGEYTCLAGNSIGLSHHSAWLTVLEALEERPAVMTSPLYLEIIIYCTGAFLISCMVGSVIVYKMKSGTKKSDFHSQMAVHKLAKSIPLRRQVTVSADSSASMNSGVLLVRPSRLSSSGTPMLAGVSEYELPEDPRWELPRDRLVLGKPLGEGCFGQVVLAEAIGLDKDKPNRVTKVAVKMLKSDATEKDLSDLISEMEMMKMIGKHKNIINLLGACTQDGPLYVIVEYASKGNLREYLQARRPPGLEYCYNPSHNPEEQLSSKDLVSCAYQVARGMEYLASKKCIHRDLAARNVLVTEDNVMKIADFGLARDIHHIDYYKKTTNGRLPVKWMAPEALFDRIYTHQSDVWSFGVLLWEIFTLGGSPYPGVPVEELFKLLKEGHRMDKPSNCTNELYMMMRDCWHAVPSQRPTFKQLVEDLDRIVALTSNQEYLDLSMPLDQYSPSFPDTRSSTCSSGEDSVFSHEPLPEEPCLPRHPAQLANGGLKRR
Briefly: Ba/F3-FGFR1 (minus IL3 or plus IL3) cellular proliferation assay, Alamar Blue. It counts as cell-based. Particulars: minus IL3, 24 hours. In a few lines:
(§1)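 Ba/F3-FGFR1 cells (20000/well) were treated with compound (10 μM–0.1 nM) for 24 h at 37 °C. Alamar Blue was then added for 4 h, with fluorescence read at ex 540/em 590 nm to give IC50/pIC50. A counterscreen was run with 10 ng/ml murine IL3.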
For orientation: Resazurin is reduced to fluorescent resorufin, in cell work by metabolically active cells.

Series [3] deals with T2, Ba/F3-FGFR3-transfected cells (Homo sapiens, UniProt P22607, cells depend on it, form not given).
T2 construct: BAF3-FGFR3 (MIN IL3 Alamar Blue- pIC50); other: minus IL3; 24 hours, Alamar Blue
T2 sequence (P22607 whole entry, change not shown): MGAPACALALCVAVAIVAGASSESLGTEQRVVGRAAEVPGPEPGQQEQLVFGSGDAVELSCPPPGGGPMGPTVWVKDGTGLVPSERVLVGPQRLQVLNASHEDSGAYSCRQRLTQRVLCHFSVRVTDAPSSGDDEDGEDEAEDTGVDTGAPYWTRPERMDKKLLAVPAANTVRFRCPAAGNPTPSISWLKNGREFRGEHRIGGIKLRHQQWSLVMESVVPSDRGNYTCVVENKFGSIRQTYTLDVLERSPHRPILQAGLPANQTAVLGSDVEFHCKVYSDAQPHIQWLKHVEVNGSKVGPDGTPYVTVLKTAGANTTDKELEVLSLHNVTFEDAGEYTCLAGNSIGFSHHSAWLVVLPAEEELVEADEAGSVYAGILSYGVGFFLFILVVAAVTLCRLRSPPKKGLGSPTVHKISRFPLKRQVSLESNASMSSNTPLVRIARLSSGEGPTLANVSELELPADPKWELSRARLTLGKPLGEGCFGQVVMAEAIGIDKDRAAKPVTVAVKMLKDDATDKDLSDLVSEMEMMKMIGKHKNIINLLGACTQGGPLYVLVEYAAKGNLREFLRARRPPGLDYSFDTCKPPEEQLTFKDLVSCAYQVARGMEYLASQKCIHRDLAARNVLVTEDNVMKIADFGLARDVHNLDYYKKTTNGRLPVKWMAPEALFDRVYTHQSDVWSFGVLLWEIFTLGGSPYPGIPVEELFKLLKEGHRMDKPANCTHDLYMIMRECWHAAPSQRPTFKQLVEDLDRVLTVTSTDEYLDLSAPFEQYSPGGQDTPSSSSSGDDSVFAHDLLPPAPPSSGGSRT
In words: Ba/F3-FGFR3 (minus IL3 or plus IL3) cellular proliferation assay, Alamar Blue. It counts as cell-based. Particulars: minus IL3; 24 hours, Alamar Blue. In a few lines:
(§2)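 Ba/F3-FGFR3 cells (20000 per well) in phenol red-free RPMI-1640 with 10% FBS were exposed to compound (10 μM to 0.1 nM) for 24 h at 37° C. Alamar Blue was then added for 4 h and fluorescence read (ex 540, em 590 nm) to give IC50/pIC50; the counterscreen was run with 10 ng/ml murine IL3.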

A further series has as its target FGFR2 (h) (Homo sapiens, UniProt P21802). In words: FGFR2 (enzymatic assay), TR-FRET. Format: biochemical. The conditions noted are these: 0.4 μM ATP, 60 min; pIC50 = -log IC50 (M); average if tested multiple times; read-out: FGFR 2 pIC50 (converted).
For series [4], the system named is Ba/F3-FGFR3-transfected cells. Briefly: Ba/F3-FGFR3 (minus IL3 or plus IL3) cellular proliferation assay, Alamar Blue. The conditions noted are these: for IC50: read-out: BAF3-FGFR3 (PLUS IL3 Alamar Blue pIC50) (converted). Format: cell-based. The method in brief: as §2
For series [5], the system named is Ba/F3-KDR-transfected cells. In words: Ba/F3-KDR (minus IL3 or plus IL3) cellular proliferation assay, Alamar Blue. It counts as cell-based. Particulars: for IC50: read-out: BAF3-KDR (PLUS IL3 Alamar Blue pIC50) (converted). The method in brief:
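Ba/F3-KDR cells, 20000 per well, exposed to compounds (10 μM to 0.1 nM) for 24 h at 37°C in RPMI/10% FBS, then Alamar Blue for 4 h; fluorescence ex 540/em 590 nm gives IC50 and pIC50. Counterscreen run with 10 ng/ml murine IL3.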

Series [6] concerns Ba/F3-FGFR1-transfected cells. Briefly: Ba/F3-FGFR1 (minus IL3 or plus IL3) cellular proliferation assay, Alamar Blue. It counts as cell-based. The conditions noted are these: plus IL3 (10 ng/ml murine IL3, counterscreen), 24 hours. The method in brief: as §1
Series [7] concerns Ba/F3-Flt3-transfected cells. In words: Ba/F3-Flt3 (minus IL3 or plus IL3) cellular proliferation assay, Alamar Blue. The conditions noted are these: plus IL3 (10 ng/ml murine IL3, counterscreen), 24 hours. It counts as cell-based. As for the experimental part:
Ba/F3-Flt3 (Minus IL3 or Plus IL3) (Cellular Proliferation Assay)
In a 384 well plate, 100 nl of compound dilution in DMSO was sprayed before adding 50 μl cell culture medium (phenol red free RPMI-1640, 10% FBS, 2 mM L-Glutamine and 50 μg/ml Gentamycin) containing 20000 cells per well of Ba/F3-Flt3-transfected cells. Cells were put in an incubator at 37° C. and 5% CO2. After 24 hours, 10 μl of Alamar Blue solution (0.5 mM K3Fe(CN)6, 0.5 mM K4Fe(CN)6, 0.15 mM Resazurin and 100 mM Phosphate Buffer) was added to the wells, incubated for 4 hours at 37° C. and 5% CO2 before RFU's (Relative Fluorescence Units) (ex. 540 nm., em. 590 nm.) were measured in a fluorescence plate reader.
In this assay, the inhibitory effect of different compound concentrations (range 10 μM to 0.1 nM) was determined and used to calculate an IC50 (M) and pIC50 (−log IC50) value. As a counterscreen the same experiment was performed in the presence of 10 ng/ml murine IL3.

Setting [8] is: plus IL3 (10 ng/ml murine IL3, counterscreen), 24 hours, Alamar Blue.

Sequence of Ba/F3-FGFR4-transfected cells (P22455 whole entry, change not shown): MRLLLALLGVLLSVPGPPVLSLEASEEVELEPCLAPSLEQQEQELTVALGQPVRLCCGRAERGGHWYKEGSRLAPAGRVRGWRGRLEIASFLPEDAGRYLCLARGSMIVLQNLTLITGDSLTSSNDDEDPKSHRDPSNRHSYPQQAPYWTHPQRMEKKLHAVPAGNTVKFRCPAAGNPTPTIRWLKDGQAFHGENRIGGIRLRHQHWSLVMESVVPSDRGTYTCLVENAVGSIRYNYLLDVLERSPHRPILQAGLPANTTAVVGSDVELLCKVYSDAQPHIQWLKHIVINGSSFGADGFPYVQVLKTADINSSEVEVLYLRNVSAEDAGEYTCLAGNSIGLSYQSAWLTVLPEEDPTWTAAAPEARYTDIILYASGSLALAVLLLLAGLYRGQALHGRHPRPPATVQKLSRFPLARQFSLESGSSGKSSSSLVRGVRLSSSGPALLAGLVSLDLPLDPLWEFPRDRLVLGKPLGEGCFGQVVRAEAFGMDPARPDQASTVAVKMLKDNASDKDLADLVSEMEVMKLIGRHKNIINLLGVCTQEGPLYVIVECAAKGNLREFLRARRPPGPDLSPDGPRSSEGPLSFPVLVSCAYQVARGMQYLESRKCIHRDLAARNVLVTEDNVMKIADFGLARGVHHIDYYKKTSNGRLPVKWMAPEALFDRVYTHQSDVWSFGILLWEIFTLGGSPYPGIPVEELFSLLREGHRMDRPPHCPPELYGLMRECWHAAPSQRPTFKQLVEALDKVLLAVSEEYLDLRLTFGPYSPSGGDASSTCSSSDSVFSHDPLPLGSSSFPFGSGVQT
Sequence of FGFR2 (h) (P21802 22-821): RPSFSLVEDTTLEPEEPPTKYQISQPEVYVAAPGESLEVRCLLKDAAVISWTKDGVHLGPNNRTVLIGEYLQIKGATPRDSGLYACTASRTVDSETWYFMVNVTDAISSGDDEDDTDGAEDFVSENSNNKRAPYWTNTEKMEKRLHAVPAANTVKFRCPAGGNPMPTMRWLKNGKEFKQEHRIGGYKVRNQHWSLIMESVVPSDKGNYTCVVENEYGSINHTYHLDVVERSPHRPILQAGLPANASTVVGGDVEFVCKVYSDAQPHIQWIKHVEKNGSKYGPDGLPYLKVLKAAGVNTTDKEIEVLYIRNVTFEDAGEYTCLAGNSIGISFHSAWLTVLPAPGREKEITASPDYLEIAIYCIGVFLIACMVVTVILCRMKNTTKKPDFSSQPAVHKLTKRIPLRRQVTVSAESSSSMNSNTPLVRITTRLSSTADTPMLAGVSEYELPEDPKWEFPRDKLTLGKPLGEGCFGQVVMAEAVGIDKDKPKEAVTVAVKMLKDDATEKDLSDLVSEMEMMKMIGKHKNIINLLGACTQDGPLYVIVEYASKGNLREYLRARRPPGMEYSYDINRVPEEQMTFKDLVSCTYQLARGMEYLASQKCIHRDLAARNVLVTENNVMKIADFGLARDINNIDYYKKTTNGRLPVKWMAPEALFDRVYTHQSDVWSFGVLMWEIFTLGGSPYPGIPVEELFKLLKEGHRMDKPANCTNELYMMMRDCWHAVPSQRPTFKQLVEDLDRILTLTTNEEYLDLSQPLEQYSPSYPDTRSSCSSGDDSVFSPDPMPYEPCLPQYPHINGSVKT
Sequence of FGFR1 (h) (P11362 22-822): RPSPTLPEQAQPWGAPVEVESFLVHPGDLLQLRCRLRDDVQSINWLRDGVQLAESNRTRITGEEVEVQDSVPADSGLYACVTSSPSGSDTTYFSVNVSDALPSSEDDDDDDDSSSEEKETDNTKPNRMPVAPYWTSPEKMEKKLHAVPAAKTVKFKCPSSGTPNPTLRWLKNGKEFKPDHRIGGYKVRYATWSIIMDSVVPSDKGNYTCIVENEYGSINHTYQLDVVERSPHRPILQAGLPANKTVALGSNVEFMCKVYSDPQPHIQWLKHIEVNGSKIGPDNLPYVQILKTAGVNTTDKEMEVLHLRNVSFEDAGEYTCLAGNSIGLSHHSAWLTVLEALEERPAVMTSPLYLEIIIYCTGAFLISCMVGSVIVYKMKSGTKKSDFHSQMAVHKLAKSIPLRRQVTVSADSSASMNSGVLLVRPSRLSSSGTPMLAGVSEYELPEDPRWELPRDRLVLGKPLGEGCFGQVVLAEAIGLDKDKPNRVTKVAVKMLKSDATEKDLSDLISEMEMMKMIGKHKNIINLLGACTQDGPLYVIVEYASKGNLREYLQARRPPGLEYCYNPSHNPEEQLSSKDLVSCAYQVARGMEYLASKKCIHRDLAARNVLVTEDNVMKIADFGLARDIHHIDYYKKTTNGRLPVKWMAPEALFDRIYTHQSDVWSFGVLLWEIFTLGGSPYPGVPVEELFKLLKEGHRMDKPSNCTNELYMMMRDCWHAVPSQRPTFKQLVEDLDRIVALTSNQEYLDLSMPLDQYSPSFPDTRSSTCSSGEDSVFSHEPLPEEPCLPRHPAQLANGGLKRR

One may read the melting point as the temperature, or range, at which the solid turns liquid. In the case of `COc1cc(OC)cc(N(CC#Cc2nccc(OC)n2)c2ccc3ncc(-c4cnn(C)c4)cc3c2)c1` [Compound 16], the melting point worked out at 203 °C. Further, the “BAF3-FGFR 4 (pIC50)” value in series [1] came to 8.21. Besides, the IC50 on FGFR1 (h) was 9.33e-09 M. Besides, the “BAF3-FGFR1 (MIN IL3 pIC50)” value in series [2] is reported as >8. The “BAF3-FGFR3 (MIN IL3 Alamar Blue- pIC50)” value in series [3] is recorded as >8. In addition, the IC50 at FGFR2 (h) is 1.55e-08 M.
In turn, `COc1cc(OC)cc(N(CC2CCN(c3nccc(OC)n3)C2)c2ccc3ncc(-c4cnn(C)c4)cc3c2)c1` (stereo not drawn) [Compound 7] registered a melting point of 132 °C. Besides, in [1], the “BAF3-FGFR 4 (pIC50)” value was <5. The “BAF3-FGFR1 (MIN IL3 pIC50)” value in series [2] is listed as <5. The “BAF3-FGFR3 (MIN IL3 Alamar Blue- pIC50)” value in [3] is <5. The IC50 in [4] (setting [8]) was > 10000 nM. Further, at FGFR2 (h), the IC50 was > 1e-06 M. Also, the IC50 in [5] (setting [8]) is > 10000 nM.
In turn, `COc1cc(OC)cc(C(O)c2ccc3ncc(-c4cnn(C)c4)cc3c2)c1` (stereo not drawn) [Compound 12] gave a melting point of 184 to 193 °C. The “BAF3-FGFR 4 (pIC50)” value in [1] is recorded as <5. At FGFR1 (h), this compound had an IC50 of 2.95e-07 M. For the same compound, in series [2], the “BAF3-FGFR1 (MIN IL3 pIC50)” value was <5.03. Moreover, the “BAF3-FGFR3 (MIN IL3 Alamar Blue- pIC50)” value in series [3] is ~5.075. Moreover, in [4] (24 h), the IC50 was > 10000 nM. Further, the IC50 on FGFR2 (h) was 4.17e-07 M. The IC50 in [5] (24 h) was > 10000 nM.
For `COc1cc(OC)cc(N(Cc2ncccn2)c2ccc3ncc(-c4cnn(C)c4)cc3c2)c1` [Compound 8], the melting point amounted to 151 °C. In addition, in [1], the “BAF3-FGFR 4 (pIC50)” value was determined as 5.64. For the same compound, the “BAF3-FGFR1 (MIN IL3 pIC50)” value in series [2] worked out at 6.27. Also, the “BAF3-FGFR3 (MIN IL3 Alamar Blue- pIC50)” value in series [3] was found to be 6.14. In addition, the IC50 in series [4] (setting [8]) is > 10000 nM. In addition, the IC50 on FGFR2 (h) is 2e-08 M. Further, the IC50 in [5] (setting [8]) is > 10000 nM.
Turning to `COc1cc(OC)cc(N(CC(O)C(F)(F)F)c2ccc3ncc(-c4cnn(C)c4)cc3c2)c1` (single isomer, unassigned) [Compound 25], the “BAF3-FGFR 4 (pIC50)” value in series [1] was 6.07. Further, the “BAF3-FGFR1 (PLUS IL3 pIC50)” value in [6] was <5. Besides, the “BAF3-FGFR1 (MIN IL3 pIC50)” value in series [2] is listed as 6.57. Further, in series [3], the “BAF3-FGFR3 (MIN IL3 Alamar Blue- pIC50)” value was found to be 6.76. Moreover, the “BAF3-FGFR3 (PLUS IL3 Alamar Blue pIC50)” value in series [4] (setting [8]) is reported as <5. The IC50 on FGFR2 (h) is 1.95e-08 M. For the same compound, the “BAF3-FLT3 (PLUS IL3 Alamar Blue pIC50)” value in [7] was <5. Moreover, the “BAF3-KDR (PLUS IL3 Alamar Blue pIC50)” value in series [5] (setting [8]) was <5.
`COc1cc(OC)cc(N(Cc2ncc[nH]2)c2ccc3ncc(-c4cnn(C)c4)cc3c2)c1` [Compound 18] yielded a melting point of 196 °C. Moreover, the “BAF3-FGFR 4 (pIC50)” value in [1] is given as 6.57. On FGFR1 (h), this compound showed an IC50 of 2.75e-09 M. The “BAF3-FGFR1 (MIN IL3 pIC50)” value in series [2] is 6.88. The “BAF3-FGFR3 (MIN IL3 Alamar Blue- pIC50)” value in [3] is 7.22. Moreover, the IC50 in series [4] (setting [8]) was > 10000 nM. Also, at FGFR2 (h), the IC50 was 2.51e-09 M. Besides, in series [5] (setting [8]), the IC50 was > 10000 nM.
Take `COc1cc(OC)cc(N(CCCN2CCCC2CNS(=O)(=O)C(F)(F)F)c2ccc3ncc(-c4cnn(C)c4)cc3c2)c1` (stereo not drawn) [Compound 47]: in series [1], the “BAF3-FGFR 4 (pIC50)” value came out at 7.44. In addition, the IC50 against FGFR1 (h) was 1.17e-09 M; in series [4] (setting [8]), > 10000 nM; at FGFR2 (h), 3.89e-09 M; in series [5] (setting [8]) it was > 10000 nM. In addition, the “BAF3-FGFR1 (MIN IL3 pIC50)” value in [2] is ~8.03. In addition, in series [3], the “BAF3-FGFR3 (MIN IL3 Alamar Blue- pIC50)” value amounted to 8.46.
`COc1cc(OC)cc(N(CCO)c2ccc3ncc(-c4cnn(C)c4)cc3c2)c1` [Compound 3] returned a melting point of 195 to 196 °C. Further, the “BAF3-FGFR 4 (pIC50)” value in series [1] worked out at 6.11. Moreover, the IC50 against FGFR1 (h) was 1.38e-08 M. The “BAF3-FGFR1 (MIN IL3 pIC50)” value in [2] is reported as 6.31. In addition, the “BAF3-FGFR3 (MIN IL3 Alamar Blue- pIC50)” value in [3] amounted to 6.33. Besides, in series [4] (setting [8]), the IC50 was > 10000 nM. At FGFR2 (h), the IC50 is 1.48e-08 M. Besides, the IC50 in [5] (setting [8]) is > 10000 nM.
As for `COc1cc(OC)cc(N(CCNC(C)C)c2ccc3ncc(-c4cnn(CCS(C)(=O)=O)c4)cc3c2)c1` [Compound 14], the melting point came out at 129 °C. For the same compound, the “BAF3-FGFR 4 (pIC50)” value in series [1] was determined as 6.7. Further, the “BAF3-FGFR1 (MIN IL3 pIC50)” value in series [2] was 7.2. The “BAF3-FGFR3 (MIN IL3 Alamar Blue- pIC50)” value in series [3] is recorded as ~6.95. In series [4] (setting [8]), the IC50 is > 10000 nM. Also, the IC50 at FGFR2 (h) was 5.25e-09 M. For the same compound, in series [5] (setting [8]), the IC50 is > 10000 nM.
